SMILES	melting point
CCCCNCCNC(=O)Nc1ccccc1C(=O)NCC1CCN(C(c2ccccc2)c2ccccc2)CC1	148 to 150 °C
CN(C)c1nc(=O)n(-c2cc(OCc3ccccc3)c(Cl)cc2F)c(=O)n1C	193 to 194 °C
CC(O)C1C(=O)N2C(C(=O)OCc3ccc([N+](=O)[O-])cc3)C(=O)CC12 (mixture of isomers)	92 to 98 °C
Cc1ccc([C@@H](O)[C@@H]2[C@@H](C)CCCC2(C)C)cc1	78 to 79 °C
COc1ccc(C)cc1NC(=O)Nc1ccc(N2CCN(C(=O)Nc3ccc(OCCO)cc3Cl)CC2)c(F)c1	118 to 120 °C
O=C(NCc1cccnc1)N(c1ccccc1)c1ccccc1	143 °C
COc1ccc(C(CCc2ccccc2)C(=O)O)cc1 (stereo unspecified)	92 to 97 °C
Cc1ncccc1C(C#N)N1CCN(C(=O)CC(NC(=O)c2cccc(OCc3ccc4ccccc4n3)c2)c2ccccc2)CC1 (stereo unspecified)	101 to 104 °C
N#CC1=C(c2cccs2)Nc2n[nH]cc2C1c1ccccc1Cl (stereo unspecified)	174 °C
Cn1nc(-c2cccnc2)c2c(C(F)(F)F)cc(-c3cccc(CN4CCOCC4)c3)nc21	155 °C
O=C(C=C1c2ccccc2-c2ccccc21)NCCCCCC(=O)NO	174 to 176 °C
NC(=O)C(Cc1ccccc1)=NNc1ccc(C(O)(C(F)(F)F)C(F)(F)F)cc1	211 to 213 °C
CCOC(=O)CN1C(=O)C(NC(=O)Nc2ccc(Cl)cc2)N=C(c2ccccc2)c2ccccc21 (stereo unspecified)	228 to 229 °C
COc1cc(C=CC(=O)O)ccc1NC(C)=O	222 to 230 °C
CCCCCCCCCCCCCCCNC(=O)OCCOCCOC(=O)NCc1ccccn1	86 to 87 °C
O=CNNc1ccc(NC(=S)Nc2ccc(NNC=O)cc2)cc1	212 to 214 °C
Nc1n[nH]c2nc(N3CCOCC3)cc(-c3ccccc3)c12	178 to 180 °C
CCNc1nc(OCc2ccccc2)nc2c1ncn2C1OC(CO)C(O)C1O (stereo unspecified)	170 to 171 °C
Cc1ncc(CN2CC=C(c3ccccc3)CC2)c(N)n1	165 to 166 °C
O=C1CCCC(=O)N1Nc1ccc([N+](=O)[O-])cc1	197 to 198 °C

SMILES	melting point
CNC(=O)C(C)Oc1ncn(-c2ccccc2)n1 (stereo unspecified)	134 to 135 °C
CCC(=NNc1ccc(-c2ccc(=O)n(C)n2)cc1)c1ccc(O)cc1O	225 to 233 °C
COC(=O)c1ccc2oc(-c3ccc(C(F)(F)F)cc3)cc2c1	180 °C
Cc1c(NCCN2C(=O)c3ccccc3C2=O)c(=O)n(C)c(=O)n1C	178 to 180 °C
CCCCCC(=O)c1c(O)oc(=O)c(C(=O)CCCCC)c1O	87 to 88 °C
O=C1c2c(F)c(F)c(F)c(F)c2C(=O)N1c1ccccc1	210 to 211 °C
C#CCN1C(=O)C(C)(C)NC(C)(C)C1=O	77 to 80 °C
CCOC(=O)c1cnc2cc(OCc3ccccc3)c(OCc3ccccc3)cn2c1=O	175 °C
O=C(COc1ccc(C(=O)OCc2ccccc2)cc1)NN=C1C(=O)Nc2ccc(I)cc21	221 °C
CCCCN1CCC(C(=O)O)(S(=O)(=O)c2ccc(Oc3ccc(Cl)cc3)cc2)CC1	201 °C
COC(=O)N(CC(=O)O)C(=O)c1cccc2c(C(F)(F)F)c(OC)ccc12	148 to 150 °C
CC(C)(CO)NS(=O)(=O)c1cc(NC(=O)c2cnn3c(C(F)(F)F)cc(-c4ccc(C(F)(F)F)c(Cl)c4)nc23)c(Cl)s1	254 °C
CCCc1nn(-c2ccc(C(F)(F)F)cn2)cc1CCCCO	80 to 81 °C
O=C(NCCN1CCCCC1)c1ccc(-c2ccc3nnn(Cc4ccc5ncccc5c4)c3n2)cc1	104 to 107 °C
CCOC(=O)c1ccc(C#CC2(O)CN3CCC2CC3)cc1 (stereo unspecified)	176 to 177 °C
CC(C)(C)[C@H](COC(=O)OCc1ccccc1)NC(=O)[C@@H](CC(=O)OCc1ccccc1)n1ccc(-c2ccc(-c3ccncc3)cc2)c1	74 to 76 °C
NS(=O)(=O)c1ccc(-c2cnn(-c3ccc(F)cc3)c(=O)c2-c2ccc(F)cc2)cc1F	222 to 224 °C
Cc1c(OCc2ccccc2)ccc2cncn12	52 to 54 °C
CN(CCCCOc1ccc(CC2SC(=O)NC2=O)cc1)c1nc2ccccc2o1 (stereo unspecified)	112 °C

The remaining lines, values ahead:

melting point	SMILES
134 °C	CC(=O)c1cn(-c2c(Cl)cc(C(F)(F)F)cc2Cl)nc1C(F)(F)F
114 to 116 °C	O=C(O)CCCCCOC(c1ccccc1)(c1ccccc1)c1ccccc1
> 250 °C	COc1ccc(-c2nc(C(=O)Nc3nccs3)c(-c3ccc(C)cc3)[nH]2)c2ccccc12
173 to 174 °C	CSc1cc(-c2nc(=O)c3ccccc3s2)ccn1
118 to 119 °C	N#Cc1cc(-c2ccccn2)nn1-c1ccc(NC(=O)c2ccncc2F)cc1
184 to 185 °C	CN1Cc2ccccc2[C@H]2c3cccc4c3[C@H](CN4)C[C@@H]21 (relative stereo)
109 to 110 °C	Cc1cc(-c2ccc(S(C)(=O)=O)cc2)n(-c2ccc(F)cc2)c1F
158 to 160 °C	COCCOCCN1C(=O)C2(COc3cc4c(cc32)OCCO4)c2c(OC)cc(OC)cc21 (stereo unspecified)
142 °C	CCCOc1ccc(CCNC(=O)C(F)(F)F)cc1S(=O)(=O)N=CN(C)C
168 to 177 °C	C[C@@H](N(CC(=O)O)C(=O)c1ccc(OCC(F)(F)F)cc1)[C@](O)(Cn1cncn1)c1ccc(F)cc1F (relative stereo)
109 to 110 °C	CN(CCNC(=O)Cc1ccc(OCc2ccc(-c3ccccc3)cc2)cc1)C(=O)OC(C)(C)C
215 to 217 °C	O=C1N(Cc2cnc(Br)s2)c2ccccc2C12COc1cc3c(cc12)OCO3 (stereo unspecified)
305 to 308 °C	O=c1[nH]c2cc(C(F)(F)F)cc(C(F)(F)F)c2[nH]c1=O
245 °C	Cc1cn(-c2nccc3ccccc23)cc1C(=O)O
133 °C	CCS(=O)(=O)c1ccc2c(c1)nc(CC(C)(C)C)n2CCOC(F)(F)F
197 to 201 °C	O=C(CCC(=O)N(CCCOc1ccc(C(=O)O)cc1)c1ccc(Cl)cc1)Nc1ccc(Cl)cc1
74 to 75 °C	C=CC(CC(=O)Nc1ccc(F)cc1)C(C)C (stereo unspecified)
270 to 274 °C	O=c1[nH]c2cc([N+](=O)[O-])c3c(c2[nH]c1=O)CN(C(=S)Nc1ccccc1)CC3
185 °C	O=c1ccc(-c2ccc(OCC(O)CN3CCCCC3)cc2)n[nH]1 (stereo unspecified)

melting point	SMILES
200 to 206 °C	CC(=O)Nc1c(CC(=O)O)c2ccccc2n1C
216 to 218 °C	Nc1nc(NCc2cccc(F)c2)nc2nc(-c3ccco3)nn12
282 to 284 °C	CCc1ccc(C2C(C(=O)c3ccc(C(C)C)cc3)=C(O)C(=O)N2c2ccc(C)nn2)cc1 (stereo unspecified)
51 °C	COc1ccc(Cc2ccc3c(c2)OCO3)c(OC)c1
97 to 98 °C	CC1(C)Oc2ccc(CNc3ccc(Cl)cc3)cc2OC1=O
200 to 201 °C	CC(C)(C)C(NC(=O)Cc1ccc2ccccc2c1)NC(=NC#N)Nc1cccc2ncccc12 (stereo unspecified)
157 to 158 °C	Cc1cccc(-c2nc3cccnn3c2-c2ccnc(NCC(C)(C)C)c2)c1
95 °C	Cc1ccc2cc(-c3ccccc3)ccc2n1
150 to 151 °C	COCC(C)Oc1ccc2c(c1)c(-c1cc3cccnc3[nH]1)cn2C (stereo unspecified)
239 to 241 °C	NC(=O)N1C(=O)/C(=C(\O)c2cccs2)c2cc(F)c(Cl)cc21
120 °C	O=C(O)CCCSC=CS(=O)(=O)CCCC(=O)O
122 to 125 °C	C#CCOc1cc(C(N)=O)cc(Cl)c1OCC#C
102 to 117 °C	NC1=NC(c2ccc(OC(F)(F)F)cc2)(c2cccc(-c3cccnc3F)c2)C2=NOCCN12 (stereo unspecified)
209 to 211 °C	O=S1(=O)N=CN(C2CCCCC2)c2ccc(Cl)cc21
189 to 191 °C	Cc1cccc(Sc2ccc3c(c2)CC[C@H]2NC(=O)CC[C@]32C)c1
85 to 89 °C	O=C1CCCCCCCCCCC(=O)O1
32 °C	CCCC[C@H]1CC[C@H](c2ccc(CCc3ccc(OC(F)F)cc3)cc2)CC1
59 to 61 °C	CCOC(=O)COc1ccc(CN2C(=O)C3(COc4cc5c(cc43)OCCO5)c3ccccc32)cc1 (stereo unspecified)
92 to 93 °C	CC1=C(O)C(=O)C(C)C1 (stereo unspecified)

melting point	SMILES
149 to 150 °C	CCOC(=O)c1ncc2c(c1COC)c1c(OCc3ccccc3)cccc1n2S(=O)(=O)c1ccc(C)cc1
140 °C	O=C(O)c1cc([N+](=O)[O-])cc(S(F)(F)(F)(F)F)c1
225 to 226 °C	O=C(Nc1nc(=O)c2cnn3c2n1CC=C3c1cccc(C(F)(F)F)c1)OCC(Cl)(Cl)Cl
80 to 88 °C	Cc1cccc(C(=O)c2[nH]c3cc(Cl)ccc3c2N)c1
148 to 149 °C	COC(=O)C(N)(CO)Cc1c[nH]c2ccccc12 (racemic)
144 to 146 °C	O=C(O)COc1c(I)cc(C(=O)c2c(Cc3ccccc3)oc3ccccc23)cc1I
296 to 297 °C	CCc1cn(C2CC(O)C(CNC(=O)Cc3c(Cl)cccc3Cl)O2)c(=O)[nH]c1=O (stereo unspecified)
102 °C	CC(=O)NCCN1CCCc2ccccc21
235 to 236 °C	CCn1c(=O)c2c(nc(/C=C/c3cc(C)c(OC)cc3C)n2C)n(CC)c1=O
211 °C	COC(=O)c1ccc(C=CC(=O)N2CCc3c([nH]c4ccccc34)C2c2ccc3c(c2)OCO3)cc1 (stereo unspecified)
73 to 76 °C	O=C(Nc1ccccc1N1CCc2ccccc21)c1ccccc1
45 to 47 °C	COCc1ncnc(N2CCCCC2)c1C
172 to 173 °C	O=C(NCCO)c1cccc(-c2ccc3c(c2)N(c2ccc(Cl)cc2Cl)CCCC3)c1
192 to 194 °C	CCn1nc2c(N)nc3ccccc3c2c1CCCCNS(C)(=O)=O
81 to 82 °C	COc1c(Br)ccc2oc(C=O)c(C)c12
99 to 105 °C	CCCCCCCCCCCCCCCCCC(=O)OC[C@H]1OCC(=NO)[C@@H](O)[C@@H]1O
140 °C	Cc1cc(C)n2nc(SCc3ccccc3)c(C#N)c2n1
125 to 127 °C	COc1cc(N)c(Cl)cc1C(=O)NCC1CCN(CCCCCC(=O)c2cn(C)c3ccccc23)CC1
59 to 60 °C	COC(=O)[C@H]1[C@@H]2CC[C@@H](C2)[C@@H]1C(=O)O

From a melting point compilation (Tetko et al.; mined from patent text by program, amines drawn as free bases though some values may be those of a salt)
